Tests used:
[1] = system: hippocampal slices; format: cell-based, mice
[2] = system: PC12 cells; format: cell-based
[3] = system: AChE; format: cell-based
[4] = system: AChE-S mRNA; details: rat, in vivo
[5] = system: AChE; details: rat, in vivo
[6] = system: AChE; details: rat, in vivo; remark: listed apart in the source

Structure (SMILES): NC(CCCP(=O)(O)O)C(=O)O (stereo not drawn) [APV, aminophosphonopentanoic acid]
- Effect on the evoked pfp [1]: blocked

Structure (SMILES): CN1[C@@H]2CC[C@H]1C[C@@H](OC(=O)C(CO)c1ccccc1)C2 (stereo partly drawn) [atropine]
- Block of the evoked response [1]: over 90%
- Reversal of the physostigmine-induced response [1]: 70%

Structure (SMILES): C[C@]12C[C@H](O)[C@H]3[C@@H](CCC4=CC(=O)CC[C@@]43C)[C@@H]1CC[C@@H]2C(=O)CO [corticosterone]
- Increase in labeling intensities of both AChE splice variants versus vehicle-treated cells [2]: 30-50%
- Increase in acetylthiocholine hydrolytic capacity of AChE [3]: 25±14%

Structure (SMILES): CNC(=O)Oc1ccc2c(c1)[C@]1(C)CCN(C)[C@@H]1N2C [physostigmine]
- Increase in amplitude of evoked population spikes, mean [1]: 42±15%
- Increase in amplitude of evoked population spikes, range [1]: 20-80%
- Increase over baseline in population spike amplitudes relative to non-stressed animals [1]: 12 fold

Structure (SMILES): CN1CCN(CC(=O)N2c3ccccc3C(=O)Nc3cccnc32)CC1 [pirenzepine]
- AChE-S elevation by vehicle injection-induced stress under muscarinic blocker [4]: 39.1±5.2 AFU
- AChE-S mRNA labeling, change in words [4]: somewhat lower increase
- DFP-induced AChE-S expression [4]: 30.4±4.9 AFU
- Effect on AChE-S or -R levels after 24 hours [4]: did not show any effect
- Cortical DFP-induced decrease in AChE activity under pirenzepine pre-treatment [5]: 44 % of control
- Hippocampal regaining of AChE activity after DFP under pirenzepine pre-treatment [5]: 63 % of control
- DFP-induced increase of G1:G4 ratio under co-injection [6]: prevented

Structure (SMILES): CN1[C@@H]2C[C@@H](OC(=O)[C@H](CO)c3ccccc3)C[C@H]1[C@@H]1O[C@@H]12 [scopolamine]
- AChE-S elevation by vehicle injection-induced stress under muscarinic blocker [4]: 39.6±3.3 AFU
- AChE-S mRNA labeling, change in words [4]: conspicuous increases
- DFP-induced AChE-S expression [4]: 35.1±10 AFU
- Effect on AChE-S or -R levels after 24 hours [4]: did not show any effect
- Effect on the DFP-induced decrease in AChE activities [5]: no significant effect
- DFP-induced increase of G1:G4 ratio under co-injection [6]: prevented

Reference: patent publication US20040058357A1 (priority 2003, published 2004)
